In the assay the target is T1, Androgen receptor (Homo sapiens, UniProt P10275).
T1 sequence (P10275 whole entry): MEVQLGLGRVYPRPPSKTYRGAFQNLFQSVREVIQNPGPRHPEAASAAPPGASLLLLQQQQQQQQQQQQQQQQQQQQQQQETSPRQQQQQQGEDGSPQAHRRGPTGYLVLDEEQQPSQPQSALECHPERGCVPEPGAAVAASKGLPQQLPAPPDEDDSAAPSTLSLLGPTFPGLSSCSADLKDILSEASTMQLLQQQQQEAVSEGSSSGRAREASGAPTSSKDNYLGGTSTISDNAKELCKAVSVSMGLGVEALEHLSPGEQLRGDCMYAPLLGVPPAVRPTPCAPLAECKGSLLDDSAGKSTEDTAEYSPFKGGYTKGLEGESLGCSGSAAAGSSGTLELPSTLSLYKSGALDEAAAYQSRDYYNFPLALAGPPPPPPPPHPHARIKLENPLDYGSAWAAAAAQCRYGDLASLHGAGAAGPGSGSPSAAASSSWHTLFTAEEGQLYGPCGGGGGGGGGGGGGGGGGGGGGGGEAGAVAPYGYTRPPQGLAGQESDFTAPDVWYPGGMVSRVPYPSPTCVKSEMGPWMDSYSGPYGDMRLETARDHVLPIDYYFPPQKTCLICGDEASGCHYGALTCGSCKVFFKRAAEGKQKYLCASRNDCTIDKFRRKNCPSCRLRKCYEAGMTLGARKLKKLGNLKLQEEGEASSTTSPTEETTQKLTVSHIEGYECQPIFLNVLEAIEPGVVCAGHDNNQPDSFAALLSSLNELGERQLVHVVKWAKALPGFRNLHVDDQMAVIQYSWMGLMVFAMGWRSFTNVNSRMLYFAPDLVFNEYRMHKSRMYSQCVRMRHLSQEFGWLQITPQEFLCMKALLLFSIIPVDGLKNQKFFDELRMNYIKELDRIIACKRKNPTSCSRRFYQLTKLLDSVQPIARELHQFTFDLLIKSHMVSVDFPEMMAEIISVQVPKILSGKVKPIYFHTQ
Nature of the assay: Antagonist activity at human androgen receptor LBD expressed in human MDA-kb2 cells by luciferase reporter gene assay. On the technique in general: A reporter such as luciferase makes a cellular process visible.

This note sets out measurements from BindingDB's records for doi:10.1016/j.bmc.2013.03.060 (Meijo University, 2013).

A word on the IC50: it is the point on the concentration scale where inhibition reaches its midpoint.

In turn, `CN(C)c1ccc(-c2cc(O)c3c(=O)cccc-3o2)cc1` came in with an IC50 of 851 nM. The same measure for `O=c1cccc2oc(-c3ccc(O)cc3)cc(O)c1-2` [5-hydroxy-2-(4-hydroxyphenyl)-4H-chromen-4-one]: 851 nM.
